The values that follow come from BindingDB's records for PubMed 10336510 (Virginia Commonwealth University, 1999).

A word on the Ki: it is a measure of affinity in units of concentration, obtained from inhibition or displacement. A higher Ki goes with lower affinity.

Bounds are passed on as bounds.

Test [1] concerns the target Sodium-dependent dopamine transporter (Rattus norvegicus, UniProt P23977).
The target in test [2] is Sodium-dependent serotonin transporter (Rattus norvegicus, UniProt P31652).
Sodium-dependent serotonin transporter, sequence (P31652 whole entry): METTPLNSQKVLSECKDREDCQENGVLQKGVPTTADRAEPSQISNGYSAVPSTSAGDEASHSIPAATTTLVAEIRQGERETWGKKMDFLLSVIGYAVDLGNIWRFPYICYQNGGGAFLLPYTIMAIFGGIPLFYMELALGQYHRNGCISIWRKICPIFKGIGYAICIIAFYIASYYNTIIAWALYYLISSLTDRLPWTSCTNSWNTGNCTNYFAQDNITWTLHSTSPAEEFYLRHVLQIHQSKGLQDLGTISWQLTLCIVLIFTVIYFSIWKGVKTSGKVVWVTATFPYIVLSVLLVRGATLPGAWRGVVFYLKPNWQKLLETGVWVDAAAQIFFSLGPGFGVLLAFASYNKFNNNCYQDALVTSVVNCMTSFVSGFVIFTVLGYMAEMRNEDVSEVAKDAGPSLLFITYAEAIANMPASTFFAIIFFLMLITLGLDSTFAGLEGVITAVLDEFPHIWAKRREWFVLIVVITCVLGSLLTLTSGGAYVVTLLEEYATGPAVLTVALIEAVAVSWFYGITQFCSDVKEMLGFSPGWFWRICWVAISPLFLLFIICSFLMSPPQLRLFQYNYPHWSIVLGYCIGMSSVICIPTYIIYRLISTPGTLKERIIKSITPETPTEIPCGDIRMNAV
The target of test [3] is Norepinephrine transporter (Rattus norvegicus, UniProt Q9JIA2).

Sodium-dependent dopamine transporter, sequence (P23977 whole entry): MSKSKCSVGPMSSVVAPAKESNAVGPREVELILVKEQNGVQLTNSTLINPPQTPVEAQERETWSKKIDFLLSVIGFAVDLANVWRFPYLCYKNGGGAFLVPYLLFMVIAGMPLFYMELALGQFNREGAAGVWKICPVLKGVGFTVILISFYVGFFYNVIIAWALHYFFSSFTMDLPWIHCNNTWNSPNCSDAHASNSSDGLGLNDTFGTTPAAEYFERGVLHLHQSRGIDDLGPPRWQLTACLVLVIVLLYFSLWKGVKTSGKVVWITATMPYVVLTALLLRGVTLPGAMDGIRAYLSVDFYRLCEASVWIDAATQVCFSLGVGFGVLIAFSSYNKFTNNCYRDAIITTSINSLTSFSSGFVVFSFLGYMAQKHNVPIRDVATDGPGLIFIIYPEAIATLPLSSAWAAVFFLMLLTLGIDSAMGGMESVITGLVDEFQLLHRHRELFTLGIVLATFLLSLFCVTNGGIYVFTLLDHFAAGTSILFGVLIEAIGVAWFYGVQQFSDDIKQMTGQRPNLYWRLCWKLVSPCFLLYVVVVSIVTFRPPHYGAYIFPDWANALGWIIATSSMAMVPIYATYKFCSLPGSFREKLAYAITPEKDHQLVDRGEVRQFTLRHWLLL

As to `COC(=O)[C@H]1[C@@H](c2ccc(Br)cc2)C[C@@H]2CC[C@H]1N2C` [RTI-51], the values for the Ki in test [1] and in test [2] were 1.69 nM and 10.6 nM, respectively.

For the compound `COC(=O)C1C2CC[C@H](C[C@@H]1c1ccc(N)cc1)N2C` (stereo partly drawn) [(3S,8R)-3-(4-Amino-phenyl)-8-methyl-8-aza-bicyclo[3.2.1]octane-2-carboxylic acid methyl ester], the Ki was determined as 9.8 nM in test [1], 5110 nM in test [2] and 151 nM in test [3].

As for `CN1[C@H]2CC[C@@H]1[C@@H](C(=O)Oc1ccccc1)[C@@H](c1ccc(Cl)cc1)C2` [RTI-113], the Ki in test [1] worked out at 1.98 nM; in test [2] it was 2340 nM; in test [3] it was 2930 nM.

Turning to `CN1C2CC[C@@H]1C[C@H](c1ccc(Cl)cc1)C2C(=O)N1CCCC1` (stereo partly specified) [RTI-147], the Ki in test [1] was 1.38 nM; in test [2], over 10000 nM; in test [3] it was 3950 nM.

Regarding `CN1[C@H]2CC[C@@H]1[C@@H](C(=O)O)[C@@H](c1ccc(Cl)cc1)C2` [RIT-70], the results for the Ki in test [1], in test [2] and in test [3] were 2070 nM, over 10000 nM and over 10000 nM, respectively.

As to `COC(=O)C1C2CC[C@H](C[C@@H]1c1ccc(C)cc1)N2C` (stereo partly specified) [RTI-32], the Ki was 1.7 nM in test [1] and 60 nM in test [3].

Turning to `CN1[C@H]2CC[C@@H]1[C@@H](C(=O)N1CCCC1)[C@@H](c1ccc(I)cc1)C2` [RTI-229], the Ki in test [1] was 0.37 nM; in test [2] it was 1730 nM; in test [3] it was 990 nM.

Consider `COC(=O)[C@H]1[C@@H](c2ccc(Cl)c(C)c2)C[C@@H]2CC[C@H]1N2C`, for which the Ki in test [1] worked out at 0.8 nM; in test [2], 10.5 nM; in test [3], 36.2 nM.

For `COC(=O)[C@@H]1C2CCC(C[C@@H]1c1ccc(Cl)c(Cl)c1)N2C` (stereo partly drawn) [(2S,3S)-methyl 3-(3,4-dichlorophenyl)-8-methyl-8-aza-bicyclo[3.2.1]octane-2-carboxylate], the Ki amounted to 0.79 nM in test [1], 3.1 nM in test [2] and 17.9 nM in test [3].

For `COC(=O)[C@H]1[C@@H](c2ccc(Cl)cc2)C[C@@H]2CC[C@H]1N2` [RTI-110], the Ki in test [1] came out at 0.62 nM; in test [2] it was 4.1 nM; in test [3], 5.45 nM.

As for `COC(=O)[C@H]1[C@@H](c2ccccc2)C[C@@H]2CC[C@H]1N2C` [methyl (1R,2S,3S,5S)-8-methyl-3-phenyl-8-azabicyclo[3.2.1]octane-2-carboxylate], the Ki in test [1] is 23 nM; in test [3], 920 nM.

Take `Cc1ccc([C@H]2C[C@@H]3CC[C@H]([C@H]2C(=O)Oc2ccccc2)N3C)cc1` [RTI-120]: the Ki in test [1] was 3.26 nM; in test [2] it was over 10000 nM; in test [3], 5830 nM.

Take `CC(C)OC(=O)[C@@H]1C2CC[C@H](C[C@@H]1c1ccc(Cl)cc1)N2C`: the Ki in test [1] came out at 1.4 nM; in test [2], 1400 nM; in test [3], 778 nM.

For the compound `CC(C)OC(=O)[C@@H]1C2CC[C@H](C[C@@H]1c1ccc(I)cc1)N2C`, the Ki was 0.4 nM in test [1], 66.8 nM in test [2] and 285 nM in test [3].

For `COC(=O)[C@H]1[C@@H](c2ccc(Cl)cc2)C[C@@H]2CC[C@H]1N2C` [RTI-31], the Ki is 1.12 nM in test [1] and 44.5 nM in test [2].
